Source: ChEMBL document CHEMBL1151598, “Synthesis of in vivo potent antimalarial 1,2,4-trioxanes” (Bioorg Med Chem Lett, 1992)
The source made the active and inactive calls. The rule behind the calls is not given here.

Key:
Mus musculus [1] = assay: Compound was tested for in vivo antimalarial activity against Plasmodium berghei in male mice (Mus musculus) at dose of 30 mg/kg (ip); A - Active; format: functional, organism-based; set-up: dose 30 mg/kg
Mus musculus [2] = assay: Compound was tested for in vivo antimalarial activity against Plasmodium berghei in male mice (Mus musculus) at dose of 90 mg/kg (intraperitoneal); A - Active; format: functional, organism-based; set-up: dose 90 mg/kg

Question: Which results are given for C=C(c1ccc(Cl)cc1)C1COC2(OO1)C1CC3CC(C1)CC2C3 (stereo not drawn)?
Answer: Activity (Mus musculus [1]): Active; Activity (Mus musculus [2]): Active

Question: For C=C(c1ccccc1)C1COC2(OO1)C1CC3CC(C1)CC2C3 (stereo not drawn), which Activity (Mus musculus [2]) is on record?
Answer: Its Activity is “Active”.

Question: Which Activity (Mus musculus [2]) does the source give for C=C(c1ccc(F)cc1)C1COC2(OO1)C1CC3CC(C1)CC2C3 (stereo not drawn) here?
Answer: The Activity was “Active”.

Question: For C=C(c1ccc(OC)cc1)C1COC2(OO1)C1CC3CC(C1)CC2C3 (stereo not drawn), which Activity (Mus musculus [1]) is on record?
Answer: Its Activity is “Active”.

Question: And the Activity (Mus musculus [2])?
Answer: Its Activity is “Active”.

Question: With C=C(c1ccc(C)cc1C)C1COC2(OO1)C1CC3CC(C1)CC2C3 (stereo not drawn) as the molecule, how does the Activity (Mus musculus [2]) read?
Answer: Its Activity is “Active”.

Question: C=C(c1ccc(C)cc1)C1COC2(OO1)C1CC3CC(C1)CC2C3 (stereo not drawn) was tested. Which Activity (Mus musculus [2]) did it give?
Answer: The Activity was “Active”.
